Assay results published in patent US20080292584A1 (priority 2005, published 2008).
“And” between values parts separate entries of the source, which are not always exact repeats. Equal entries are not always repeated. Where two headings read alike, the source gives them in different places.

Columns and labels:
CYP2D6 [1] = biological target: T1, CYP2D6 (Homo sapiens, UniProt P10635); test: Inhibition of CYP2D6 activity in pooled human liver microsomes (dextromethorphan 5 μM to dextrorphan); type: in vitro ADME
Method: All other incubations were for 30 minutes.
Four replicates were performed.
Two replicates were performed.

CYP2C9 = CYP2C9 (Homo sapiens, UniProt P11712); test: Metabolism of metaxalone by expressed recombinant human CYP2C9 at 5 or 20 pmol (Example 4); conditions: for % Turnover Mean / [metaxalone] Mean / % Turnover % / [metaxalone]: 60 min; for % Turnover % / [metaxalone]: single replicates, listed as Metaxalone
Method: For CYP2C9 and CYP2D6, SUPERSOMES singly-expressing different allelic variants of the cytochrome p450 isozyme were commercially available. For each of CYP2C9 and CYP2D6, only the *1 allele was tested in these experiments. […]

CYP2C8 = biological target: T2, CYP2C8 (Homo sapiens, UniProt P10632); conditions: both, pH 7.4; for Mean Conc.: 60 min; for % Turnover Mean: microsomes, 1 h
T2 sequence (P10632 1-490): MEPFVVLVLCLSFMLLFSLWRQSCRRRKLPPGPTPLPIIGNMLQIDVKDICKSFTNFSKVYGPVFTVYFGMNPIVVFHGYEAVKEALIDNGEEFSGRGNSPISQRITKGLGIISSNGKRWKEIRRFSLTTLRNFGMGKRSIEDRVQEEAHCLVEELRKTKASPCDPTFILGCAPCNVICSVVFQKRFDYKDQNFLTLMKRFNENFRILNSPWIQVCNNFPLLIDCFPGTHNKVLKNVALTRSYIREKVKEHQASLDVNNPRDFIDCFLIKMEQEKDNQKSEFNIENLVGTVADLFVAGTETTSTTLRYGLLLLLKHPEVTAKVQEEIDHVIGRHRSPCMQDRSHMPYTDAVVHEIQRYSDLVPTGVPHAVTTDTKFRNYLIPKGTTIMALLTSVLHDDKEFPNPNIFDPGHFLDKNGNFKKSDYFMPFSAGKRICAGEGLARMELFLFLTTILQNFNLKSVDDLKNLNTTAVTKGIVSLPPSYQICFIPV
Method: (§1) Human liver microsomes pooled from 15 individuals (male and female) (Pool HMMC-PL020; CellzDirect, Inc., In Vitro Products and Services Division) were used in some experiments of this study.
(§2) % Turnover=100−{[TA(final)]/[mean of TA(0 min)]}×100,
(§3) % Inhibition of Turnover=100{1−([TA(0 min)]−[TA(final-inhibitor)])/([TA(0 min)]−[TA(final-no inhibitor)])}.
(§4) The inhibitors or vehicle control were incubated with the pooled human liver microsomes (1 mg/mL) and NADPH (1 mM) in 0.1 M phosphate buffer, pH 7.4. […] Incubations were conducted in triplicate and terminated by addition of organic solvent. Samples were extracted and analyzed by LC-MS/MS as described above.

CYP2D6 [2] = biological target: T1, CYP2D6; test: Metabolism of metaxalone by expressed recombinant human CYP2D6 (Example 1); conditions: 30 min;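 note: reactions in 0.5 mL were started by adding an NADPH regenerating system after 5 min preincubation, with background signal estimated from controls containing only matrix components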
Method: Commercially available microsomes from baculovirus-infected insect cells containing singly-expressed recombinant wild-type (*1 allele) human CYP enzymes and cDNA-expressed human cytochrome p450 oxidoreductase [BD SUPERSOMES Enzymes; BD Biosciences Discovery Labware (Woburn, Mass.)] were used.
After a 5-minute pre-incubation, an NADPH regenerating system (NRS) was added to the incubation mixtures to initiate reactions, with a final incubation volume of 0.5 mL. Incubations were continued for 30 minutes, and then terminated, except for those for CYP2C19, which were incubated for 36 minutes prior to termination.
Matrix controls were performed to determine the background signal from the matrix components (microsomes (10 pmol p450), 01N Tris buffer, NRS, and 1% methanol). […] After a 5-minute pre-incubation, 2% sodium bicarbonate solution was added to the incubation mixtures. Incubation was for 30 minutes at a final volume of 0.5 mL. Matrix and metabolic negative controls were terminated by adding an equal volume of methanol. […] Analysis of samples was subsequent to storage at −70° C.

CYP2E1 = CYP2E1 (Homo sapiens, UniProt P05181); test: Metabolism of metaxalone by expressed recombinant human CYP2E1 at 5 or 20 pmol (Example 4); conditions: for percent turnover / % Turnover Mean / [metaxalone] Mean / % Turnover % / [metaxalone]: 60 min; for % Turnover % / [metaxalone]: single replicates, listed as Metaxalone
CYP2D6 [3] = biological target: T1, CYP2D6; test: Chemical inhibition of metaxalone turnover in human liver microsomes, CYP2D6 inhibitor quinidine; conditions: 7.5 μM metaxalone; 1 mg/mL HLM; 60 min; with quinidine; single replicates
Method: as §1, §2, §3, §4

CYP2A6 = test: Chemical inhibition of metaxalone turnover in human liver microsomes, CYP2A6 inhibitor pilocarpine; conditions: 1 mg/mL HLM, 60 min, with pilocarpine; for % Turnover / % inhibition of turnover / Conc.: single replicates
Method: as §1, §2, §3, §4

[4] = 0.75 μM metaxalone, 20 pmol cyp

T1 sequence (P10635 whole entry): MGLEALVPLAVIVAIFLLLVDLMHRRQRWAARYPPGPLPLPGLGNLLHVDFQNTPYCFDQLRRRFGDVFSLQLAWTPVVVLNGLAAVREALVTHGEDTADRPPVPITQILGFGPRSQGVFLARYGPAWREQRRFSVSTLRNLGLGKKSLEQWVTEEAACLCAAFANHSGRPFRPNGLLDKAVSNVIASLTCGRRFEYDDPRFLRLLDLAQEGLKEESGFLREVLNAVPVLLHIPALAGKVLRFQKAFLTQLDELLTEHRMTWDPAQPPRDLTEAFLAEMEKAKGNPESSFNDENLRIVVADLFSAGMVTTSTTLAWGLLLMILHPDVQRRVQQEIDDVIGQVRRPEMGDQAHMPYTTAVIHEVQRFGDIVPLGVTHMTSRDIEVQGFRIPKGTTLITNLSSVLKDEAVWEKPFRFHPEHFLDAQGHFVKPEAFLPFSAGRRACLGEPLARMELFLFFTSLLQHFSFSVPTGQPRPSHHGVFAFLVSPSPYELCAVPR
Sequence of CYP2E1 (P05181 whole entry): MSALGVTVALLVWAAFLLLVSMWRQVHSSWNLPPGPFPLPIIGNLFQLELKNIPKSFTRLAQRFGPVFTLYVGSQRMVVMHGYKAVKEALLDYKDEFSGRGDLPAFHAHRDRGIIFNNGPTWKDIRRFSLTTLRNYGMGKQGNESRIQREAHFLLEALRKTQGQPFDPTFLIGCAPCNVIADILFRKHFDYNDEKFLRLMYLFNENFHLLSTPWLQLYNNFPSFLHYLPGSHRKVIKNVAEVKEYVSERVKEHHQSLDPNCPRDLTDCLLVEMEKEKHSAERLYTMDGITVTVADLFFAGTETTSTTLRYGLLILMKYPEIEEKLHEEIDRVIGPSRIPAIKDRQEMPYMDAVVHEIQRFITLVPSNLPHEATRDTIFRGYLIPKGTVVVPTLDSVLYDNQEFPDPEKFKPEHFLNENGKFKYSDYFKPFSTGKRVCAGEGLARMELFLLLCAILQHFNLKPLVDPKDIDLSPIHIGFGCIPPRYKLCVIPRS
Sequence of CYP2C9 (P11712 whole entry): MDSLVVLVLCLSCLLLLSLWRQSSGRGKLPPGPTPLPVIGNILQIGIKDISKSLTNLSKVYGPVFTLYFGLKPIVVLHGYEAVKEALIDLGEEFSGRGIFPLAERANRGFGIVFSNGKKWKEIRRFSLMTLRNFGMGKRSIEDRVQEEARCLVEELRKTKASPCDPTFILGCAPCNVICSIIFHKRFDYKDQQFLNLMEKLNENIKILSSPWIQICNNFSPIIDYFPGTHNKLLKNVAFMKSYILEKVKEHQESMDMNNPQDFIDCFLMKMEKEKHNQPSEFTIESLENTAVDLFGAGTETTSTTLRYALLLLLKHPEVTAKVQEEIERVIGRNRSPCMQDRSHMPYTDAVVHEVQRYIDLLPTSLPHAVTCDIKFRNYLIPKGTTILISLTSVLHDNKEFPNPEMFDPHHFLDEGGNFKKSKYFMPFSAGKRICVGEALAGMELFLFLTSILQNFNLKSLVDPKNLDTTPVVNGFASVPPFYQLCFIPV

Cc1cc(C)cc(OCC2CNC(=O)O2)c1 (stereo not drawn) [metaxalone, 5-[(3,5-dimethylphenoxy)methyl]-2-oxazolidinone]
inhibition of CYP activity at a statistically significant level (CYP2D6 [1]; 0.3-100 μM metaxalone, p≦0.05): inhibited
Inhibitor (CYP2D6 [1]; CYP isozyme 2D6, summary of studies): +
Percent of VC (CYP2D6 [1]; metaxalone 0.3 μM): 81.3%
Specific Activity Individual (CYP2D6 [1]; metaxalone 0.3 μM): 39.5 pmol/min/mg protein and 39.2 pmol/min/mg protein and 40.5 pmol/min/mg protein
Specific Activity Mean ± SD (CYP2D6 [1]; metaxalone 0.3 μM): 39.8 ± 0.688 pmol/min/mg protein
Percent of VC (CYP2D6 [1]; metaxalone 1 μM): 84.2%
Specific Activity Individual (CYP2D6 [1]; metaxalone 1 μM): 42.4 pmol/min/mg protein and 41.3 pmol/min/mg protein
Specific Activity Mean ± SD (CYP2D6 [1]; metaxalone 1 μM): 41.2 ± 1.28 pmol/min/mg protein
Percent of VC (CYP2D6 [1]; metaxalone 3 μM): 89.3%
Specific Activity Individual (CYP2D6 [1]; metaxalone 3 μM): 43.0 pmol/min/mg protein and 44.8 pmol/min/mg protein
Specific Activity Mean ± SD (CYP2D6 [1]; metaxalone 3 μM): 43.7 ± 0.940 pmol/min/mg protein
Percent of VC (CYP2D6 [1]; metaxalone 30 μM): 85.1%
Specific Activity Individual (CYP2D6 [1]; metaxalone 30 μM): 41.4 pmol/min/mg protein and 42.6 pmol/min/mg protein and 40.9 pmol/min/mg protein
Specific Activity Mean ± SD (CYP2D6 [1]; metaxalone 30 μM): 41.6 ± 0.893 pmol/min/mg protein
Percent of VC (CYP2D6 [1]; metaxalone 100 μM): 85.9%
Specific Activity Individual (CYP2D6 [1]; metaxalone 100 μM): 42.6 pmol/min/mg protein and 41.3 pmol/min/mg protein and 42.2 pmol/min/mg protein
Specific Activity Mean ± SD (CYP2D6 [1]; metaxalone 100 μM): 42.0 ± 0.680 pmol/min/mg protein
% Turnover Mean (CYP2C9; 0.75 μM metaxalone, 5 pmol cyp): 1.6%
[metaxalone] Mean (CYP2C9; 0.75 μM metaxalone, 5 pmol cyp): 0.779 µM
% Turnover % (CYP2C9; 0.75 μM metaxalone, 5 pmol cyp): 6.1% and 5.4% and −6.8%
[metaxalone] (CYP2C9; 0.75 μM metaxalone, 5 pmol cyp): 0.743 µM and 0.749 µM and 0.845 µM
% Turnover Mean (CYP2C9; [4]): 2.4%
[metaxalone] Mean (CYP2C9; [4]): 0.772 µM
% Turnover % (CYP2C9; [4]): 8.7% and 4.0% and −5.4%
[metaxalone] (CYP2C9; [4]): 0.722 µM and 0.760 µM and 0.834 µM
% Turnover Mean (CYP2C9; 7.5 μM metaxalone, 5 pmol cyp): 7.9%
[metaxalone] Mean (CYP2C9; 7.5 μM metaxalone, 5 pmol cyp): 7.78 µM
% Turnover % (CYP2C9; 7.5 μM metaxalone, 5 pmol cyp): 14.3% and 2.9% and 6.4%
[metaxalone] (CYP2C9; 7.5 μM metaxalone, 5 pmol cyp): 7.24 µM and 8.20 µM and 7.90 µM
% Turnover Mean (CYP2C9; 7.5 μM metaxalone, 20 pmol cyp): 3.7%
[metaxalone] Mean (CYP2C9; 7.5 μM metaxalone, 20 pmol cyp): 8.13 µM
% Turnover % (CYP2C9; 7.5 μM metaxalone, 20 pmol cyp): −1.1% and 1.6% and 10.7%
[metaxalone] (CYP2C9; 7.5 μM metaxalone, 20 pmol cyp): 8.54 µM and 8.31 µM and 7.54 µM
Substrate (CYP2C9; CYP isozyme 2C9, summary of studies): +
Mean Conc. (CYP2C8; 0.75 μM): 0.719 µM
Mean Conc. (CYP2C8; 7.5 μM): 8.19 µM
% Turnover Mean (CYP2C8; 0.75 μM): 6.78%
% Turnover Mean (CYP2C8; 7.5 μM): 3.77%
Metaxalone Present Adjusted Individual (CYP2D6 [2]; metaxalone 0.5 μM): 0.374 µM and 0.297 µM and 0.286 µM
Metaxalone Present Adjusted Mean ± SD (CYP2D6 [2]; metaxalone 0.5 μM): 0.319 ± 0.0477 µM
Metaxalone Present Raw (CYP2D6 [2]; metaxalone 0.5 μM): 0.1868 µM and 0.1486 µM and 0.1431 µM
Percent of Metabolic Negative Control Individual (CYP2D6 [2]; metaxalone 0.5 μM): 128% and 102% and 98.0%
Percent of Metabolic Negative Control Mean ± SD (CYP2D6 [2]; metaxalone 0.5 μM): 109 ± 16.3%
Metaxalone Present Adjusted Individual (CYP2D6 [2]; metaxalone 2.5 μM): 1.52 µM and 1.54 µM and 1.53 µM
Metaxalone Present Adjusted Mean ± SD (CYP2D6 [2]; metaxalone 2.5 μM): 1.53 ± 0.0111 µM
Metaxalone Present Raw (CYP2D6 [2]; metaxalone 2.5 μM): 0.7583 µM and 0.7685 µM and 0.767 µM
Percent of Metabolic Negative Control Individual (CYP2D6 [2]; metaxalone 2.5 μM): 96.9% and 98.2% and 98.0%
Percent of Metabolic Negative Control Mean ± SD (CYP2D6 [2]; metaxalone 2.5 μM): 97.7 ± 0.707%
Metaxalone Present Adjusted Individual (CYP2D6 [2]; metaxalone 25 μM): 19.1 µM and 19.7 µM and 18.9 µM
Metaxalone Present Adjusted Mean ± SD (CYP2D6 [2]; metaxalone 25 μM): 19.2 ± 0.436 µM
Metaxalone Present Raw (CYP2D6 [2]; metaxalone 25 μM): 9.526 µM and 9.845 µM and 9.429 µM
Percent of Metabolic Negative Control Individual (CYP2D6 [2]; metaxalone 25 μM): 99.2% and 103% and 98.2%
Percent of Metabolic Negative Control Mean ± SD (CYP2D6 [2]; metaxalone 25 μM): 99.9 ± 2.27%
percent turnover (CYP2E1; 0.75 μM metaxalone, 5 pmol CYP450): 11.3%
% Turnover Mean (CYP2E1; 0.75 μM metaxalone, 5 pmol cyp): 11.3%
[metaxalone] Mean (CYP2E1; 0.75 μM metaxalone, 5 pmol cyp): 0.631 µM
% Turnover % (CYP2E1; 0.75 μM metaxalone, 5 pmol cyp): 2.7% and 15.1% and 16.3%
[metaxalone] (CYP2E1; 0.75 μM metaxalone, 5 pmol cyp): 0.693 µM and 0.604 µM and 0.596 µM
percent turnover (CYP2E1; 0.75 μM metaxalone, 20 pmol CYP450): 16.2%
% Turnover Mean (CYP2E1; [4]): 16.2%
[metaxalone] Mean (CYP2E1; [4]): 0.597 µM
% Turnover % (CYP2E1; [4]): 14.6% and 12.6% and 21.3%
[metaxalone] (CYP2E1; [4]): 0.608 µM and 0.622 µM and 0.560 µM
percent turnover (CYP2E1; 7.5 μM metaxalone, 5 pmol CYP450): 18.4%
% Turnover Mean (CYP2E1; 7.5 μM metaxalone, 5 pmol cyp): 18.4%
[metaxalone] Mean (CYP2E1; 7.5 μM metaxalone, 5 pmol cyp): 6.29 µM
% Turnover % (CYP2E1; 7.5 μM metaxalone, 5 pmol cyp): 16.9% and 16.7% and 21.7%
[metaxalone] (CYP2E1; 7.5 μM metaxalone, 5 pmol cyp): 6.41 µM and 6.42 µM and 6.04 µM
percent turnover (CYP2E1; 7.5 μM metaxalone, 20 pmol CYP450): 17.2%
% Turnover Mean (CYP2E1; 7.5 μM metaxalone, 20 pmol cyp): 17.2%
[metaxalone] Mean (CYP2E1; 7.5 μM metaxalone, 20 pmol cyp): 6.39 µM
% Turnover % (CYP2E1; 7.5 μM metaxalone, 20 pmol cyp): 18.0% and 19.0% and 14.5%
[metaxalone] (CYP2E1; 7.5 μM metaxalone, 20 pmol cyp): 6.33 µM and 6.25 µM and 6.60 µM
Substrate (CYP2E1; CYP isozyme 2E1, summary of studies): +
% Turnover (CYP2D6 [3]): 11.1%
% Turnover Mean (CYP2A6; 0.75 μM metaxalone): 16.0%
% inhibition of turnover Mean (CYP2A6; 0.75 μM metaxalone): 46.2%
Mean Conc. (CYP2A6; 0.75 μM metaxalone): 0.648 µM
% Turnover (CYP2A6; 0.75 μM metaxalone): 13.9% and 14.7% and 19.4%
% inhibition of turnover (CYP2A6; 0.75 μM metaxalone): 53.2% and 50.6% and 34.9%
Conc. (CYP2A6; 0.75 μM metaxalone): 0.664 µM and 0.658 µM and 0.622 µM
% Turnover Mean (CYP2A6; 7.5 μM metaxalone): 12.1%
% inhibition of turnover Mean (CYP2A6; 7.5 μM metaxalone): 50.8%
Mean Conc. (CYP2A6; 7.5 μM metaxalone): 7.48 µM
% Turnover (CYP2A6; 7.5 μM metaxalone): 8.8% and 14.5% and 13.0%
% inhibition of turnover (CYP2A6; 7.5 μM metaxalone): 64.2% and 41.2% and 47.1%
Conc. (CYP2A6; 7.5 μM metaxalone): 7.76 µM and 7.28 µM and 7.41 µM
